Test results taken from patent publication US20240418707A1, “SELF-ORGANIZING NEURO-MUSCULAR JUNCTION CELL CULTURE MODEL” (Max-Delbrück-Centrum für Molekulare Medizin in der …, priority 2023, published 2024).
“Also recorded” adds a separate entry of the source.

Tests used:
Format in all cases: cell-based, human
[1] = test system: skeletal muscles in the soNMJ model; test: Contraction analysis of soNMJ model by live imaging; details: soNMJ model day 75, control hPSC lines (H1, XM001); 10 μM curare
Description: (§1) Three different regions of the same coverslip were recorded for contraction analysis using a Leica SP8 confocal microscope. Each region was recorded twice for 3 minutes using brightfield with 20× zoom. To quantify the muscle contraction, each movie was analyzed individually using MuscleMotion (an open source ImageJ Macro). A reference frame was automatically detected by MuscleMotion to measure the contraction as a variation in pixel over time. The results were then plotted in Prism8 (GraphPad).

[2] = test system: skeletal muscle fibers and neurons of the soNMJ model; test: Calcium imaging with Fluo8 in neuromuscular cultures; details: day 75, Fluo8-AM, 10 μM curare
Description: Between day 50 and day 100, the cells were incubated at 37° C. with […] of the cell permeant calcium indicator Fluo-8 AM (Abcam). After 30 minutes of incubation, the cells were washed two times with culture medium (NB without phenol red) and left to recover for 15 min in the incubator prior to the start of any optical recording. During acquisition, the samples were kept at 37° C. with 5% CO2. Fluorescent time series images were acquired with a CSU-W1 spinning disk confocal microscope. The calcium transients were recorded for 2-3 minutes at 20 frames per second in three different conditions: without any treatment, with addition of […] Acetylcholine (Sigma Aldrich) and with addition of 10 μM Curare (Sigma Aldrich).
Analysis of the calcium activity was performed by measuring the variation of fluorescence intensity in each ROI with ImageJ. ROIs were detected manually, and neurons and muscle cells could be distinguished by morphology. The variation of fluorescence intensity for each individual ROI was then plotted in Prism 8 (GraphPad).

[3] = test system: NMJs of the soNMJ model; test: Optogenetic (Channelrhodopsin) stimulation of neurons with muscle contraction readout
Description: For specifically stimulating neurons in the neuromuscular culture, cells were incubated with 1E+9 VG/mL AAV8-hSyn-hChR2 (H134R)-GFP for 48 h at day 50. After 3-4 weeks, the expression of ChR2 (H134R)-GFP was assessed using a confocal microscope. Cultures were transferred to the electrophysiology setup described above, and continuously superfused with HEPES-buffered extracellular solution at room temperature. Bright-field images of 2048×2048 were acquired at 10 Hz using an sCMOS camera (Photometrics Prime BSI Express) with 50 ms exposure time. Every 50 s, ChR2-expressing neurons were optically stimulated with three 5-ms flashes of 470 nm light at 10 Hz, with 10 mW/mm2 intensity. For the analysis, the muscle contraction recorded in brightfield was quantified using MuscleMotion (described below), plotted in Prism8 (GraphPad) and correlated to the light […] pulses.
as §1

[4] = test system: SMA type I hiPSC derived soNMJ cultures; test: Muscle contraction analysis in SMA type I soNMJ model; details: day 50, 10 μM, compared to H1 control
Description: as §1

curare
skeletal muscle contraction [1]: blocked the contraction of the skeletal muscles
calcium activity / firing of the neurons [2]: without affecting the firing of the neurons
calcium activity in skeletal muscle fibers [2]: blocked the calcium activity in the skeletal muscle fibers; also recorded: abolished the calcium activity in the skeletal muscles
muscle contraction upon optogenetic stimulation of ChR2-GFP+ neurons ([3]; day 75, 470 nm light pulse, 10 μM curare): inhibition of muscle contraction even upon optogenetic stimulation; also recorded: blocked the optogenetic stimulation of the skeletal muscles
muscle contraction response to blue light stimulation after washout ([3]; day 75, after washing out curare): restored by washing out curare
muscle contraction in SMA type I soNMJ [4]: did not respond; also recorded: failed to stop spontaneous muscle activity
